Experiments:
[1] = tested on: LoVo colon carcinoma cells; experiment: LoVo colon carcinoma xenograft in athymic nu/nu mice; assay type: in vivo, mouse xenograft of human tumor cells; settings: 5-FU study LoVo, EKB-569 20 mg/kg PO days 1-20, 5-FU 40 mg/kg IP days 1, 5, 9, 13
Procedure: (§1) In all of the experiments, athymic nu/nu female mice (Charles River Laboratories) were injected SC (subcutaneously) with either 7×10^6 or 1×10^7 LoVo colon carcinoma cells or 5×10^6 GEO colon carcinoma cells. When tumors attained a mass of between 80 and 120 mg (Day 0), animals were randomized into treatment groups each containing between 5 and 20 animals, (dependent upon the experiment). Mice were treated orally (PO) with EKB-569 or vehicle control for 15 to 20 days, depending upon the experiment. EKB-569 was formulated in 0.5% Methocel, 0.4% Tween 80. Cytotoxic agents, (paclitaxel, 5-FU and cisplatin), were given either by […] (IP) or intravenous (IV) administration on either days 1, 5 and 9 or on days 1, 5, 9 and 13, depending upon the experiment. Tumor mass ([Length×Width^2]/2) was determined every seven days post staging for up to 35 days. The relative tumor growth, (Mean tumor mass on day measured divided by the mean tumor mass on day zero), and the percent Tumor/Control, (% T/C), was then calculated for each treatment group for as long as the control group remained. The % T/C is defined as the Mean Relative Tumor Growth of the Treated Group divided by the Mean Relative Tumor Growth of Vehicle Control Group multiplied by 100. The data was analyzed via Student's one-tailed t-test. A p-value≦0.05 indicates a statistically significant reduction in relative tumor growth of treated group compared with the vehicle control group or drug treated group.
The activity of EKB-569 in combination with paclitaxel was assessed using the human colon carcinoma lines LoVo and GEO. In the LoVo experiment, 20 mg/kg EKB-569 was administered PO for 20 consecutive days. Twenty mg/kg paclitaxel prepared in 2% cremophor el and 2% ethanol was administered IV on days 1, 5, 9 and 13.
(§2) The activity of EKB-569 in combination with 5-FU was assessed in LoVo and GEO xenografts. In the LoVo experiment, 20 mg/kg EKB-569 was administered for 20 consecutive days while 40 mg/kg 5-FU was administered IP on days 1, 5, 9 and 13. In the GEO experiment, 80 mg/kg EKB-569 was administered PO for 15 consecutive days while 40 mg/kg 5-FU was administered IP on days 1, 5, 9 and 13. […] At all time points, tumor size was smaller in the combination group compared with the single agent groups in these experiments.
The activity of EKB-569 in combination with cisplatin was assessed in LoVo and GEO xenografts. In the LoVo study, 20 mg/kg EKB-569 was administered PO for 20 consecutive days while 3 mg/kg cisplatin was administered IP on days 1, 5 and 9. In the GEO experiment, 80 mg/kg EKB-569 was administered PO for 15 consecutive days while 3 mg/kg cisplatin was administered I P on days 1, 5, 9 and 13. In both these experiments, combination therapy gave statistically significant, (p≦0.05), tumor growth inhibition than either drug alone at 3 out of 4 time points examined.

[2] = tested on: GEO colon carcinoma cells; experiment: GEO colon carcinoma xenograft in athymic nu/nu mice; assay type: in vivo, human; settings: for RTG (Relative Tumor Growth): EKB-569 80 mg/kg PO, paclitaxel 25 mg/kg IV
Procedure: as §1
In the experiment of Table 1 (GEO), 80 mg/kg EKB-569 was administered PO for 15 consecutive days while 25 mg/kg paclitaxel was administered IV on days 1, 5, 9 and 13 (Table 1). The results obtained in this study were identical to that in the LoVo study except that there was up to 85% tumor growth inhibition seen in the group receiving combination therapy.
as §2, with “experiments. […]” for “experiments.”

[3] = 5-FU study GEO, Day 8, EKB-569 80 mg/kg PO days 1-15, 5-FU 40 mg/kg IP days 1, 5, 9, 13
[4] = 5-FU study GEO, Day 14, EKB-569 80 mg/kg PO days 1-15, 5-FU 40 mg/kg IP days 1, 5, 9, 13
[5] = 5-FU study GEO, Day 21, EKB-569 80 mg/kg PO days 1-15, 5-FU 40 mg/kg IP days 1, 5, 9, 13
[6] = 5-FU study GEO, Day 28, EKB-569 80 mg/kg PO days 1-15, 5-FU 40 mg/kg IP days 1, 5, 9, 13
[7] = paclitaxel study, Day 6, EKB-569 80 mg/kg PO days 1-15, paclitaxel 25 mg/kg IV days 1, 5, 9, 13
[8] = paclitaxel study, Day 15, EKB-569 80 mg/kg PO days 1-15, paclitaxel 25 mg/kg IV days 1, 5, 9, 13

| Compound | % T/C ([1]; Day 7) [%] | % T/C ([1]; Day 14) [%] | % T/C ([1]; Day 21) [%] | % T/C ([1]; Day 29) [%] | % T/C [2, 3] [%] | % T/C [2, 4] [%] | % T/C [2, 5] [%] | % T/C [2, 6] [%] | % T/C [2, 7] [%] | RTG (Relative Tumor Growth) ([2]; paclitaxel study, Day 6) | % T/C [2, 8] [%] | RTG (Relative Tumor Growth) ([2]; paclitaxel study, Day 15) | RTG (Relative Tumor Growth) ([2]; paclitaxel study, Day 21) | RTG (Relative Tumor Growth) ([2]; paclitaxel study, Day 28) |
| --- | --- | --- | --- | --- | --- | --- | --- | --- | --- | --- | --- | --- | --- | --- |
| O=c1[nH]cc(F)c(=O)[nH]1 [5-FU, 5-Fluorouracil] | 59 | 63 | 85 | 77 | 58 | 47 | 50 | 60 |  |  |  |  |  |  |
| CCOc1cc2ncc(C#N)c(Nc3ccc(F)c(Cl)c3)c2cc1NC(=O)C=CCN(C)C [EKB-569, 4-dimethylamino-but-2-enoic acid [4-(3-chloro-4-fluoro-phenylamino)-3-cyano-7-ethoxy-quinolin-6-yl]-amide] | 84 | 67 | 77 | 95 | 55 | 54 | 81 | 95 | 51 | 1.78 | 53 | 3.33 | 5.19 | 5.78 |
| CC(=O)O[C@H]1C(=O)[C@@]2(C)[C@H]([C@H](OC(=O)c3ccccc3)[C@]3(O)C[C@H](OC(=O)[C@H](O)[C@@H](NC(=O)c4ccccc4)c4ccccc4)C(C)=C1C3(C)C)[C@]1(OC(C)=O)CO[C@@H]1C[C@@H]2O [Paclitaxel, paclitaxel] |  |  |  |  |  |  |  |  | 46 | 1.63 | 43 | 2.69 | 2.24 | 2.70 |
